From patent US20230050846A1, “TREATMENT OF HEPATIC AND CARDIOVASCULAR DISORDERS” (LIFESEARCH, priority 2019, published 2023)
Peptide text beside a SMILES is read from it. * marks the point of attachment. Palmitoyl = CCCCCCCCCCCCCCCC(=O)*

Columns and labels:
HepG2 cells = experiment: HDL endocytosis assay in hepatocytes; format: cell-based, human; conditions: 1 μM; HDL-Alexa568 50 μg/mL, 25 min; abolished by IF1 1 μM
Description: HepG2 cells were seeded on 96-well plates at 50,000 cells/well. HDL3 (d 1.12-1.21) were isolated from plasma of healthy human donors and referred to as HDL. HDL was fluorescently labeled with AlexaFluor®568 dye (A10238, Thermofisher Scientific) according the instructions of manufacturer. 1 h30 before the assay, the cells were serum starved for 1 h30 in order to stabilize nucleotide secretion. Cells were incubated with inhibitors (H49K, 1 μM) for 10 min before treatment with the different peptides (1 μM) or apoA-I (10 μg/ml) purified from human plasma. 5 min after peptide treatment, endocytosis was initiated by 50 μg/mL of AlexaFluor568®-labelled HDL. The same experiment was performed with a […] excess of unlabelled HDL (2.5 mg/mL) to determine the nonspecific fluorescence signal. After 25 min at 37° C., cells were then washed in serum-free DMEM and extracellular membrane-bound HDL was disassociated by incubating cells at 4° C. in serum-free DMEM for 90 min. Following washes, cells were lysate in NaOH 0.1M SDS 1% during 2 h, lysates were transferred in a black 96-wells plate and fluorescence was recorded at 568 nm (Varioscan flash). Fluorescence for each condition was substrate with the value obtained in unlabelled HDL condition, and results were expressed as the fold change as compared with the basal condition (untreated cells).

wild-type C57B/L6J mice = experiment: Biliary lipid secretions, gallbladder cannulation, wild-type mice; format: in vivo, mouse; conditions: for bile flux / biliary secretion of bile acids / biliary secretion of cholesterol: C57BL/6 mice, vs PBS or SCR
Description: Wild-type C57B/L6J male mice were purchased from Janvier Labs (Le Genest Saint Isle, France). LDLR knock-out mice (males, C57B/L6J background) were obtained from The Jackson Laboratory (Bar Harbor, Me., USA). Mice were caged in animal rooms under specific pathogen free conditions at the animal facility of Rangueil (Anexplo platform, US006, Toulouse, France) with a light/dark schedule of 12 h/12 h and were fed ad libitum with a normal chow diet (#V1535 R/M-H, Ssniff, Germany). All animal experimental procedures were conducted in accordance with institutional guidelines on animal experimentation approved by the local ethical committee of animal care and are conformed to the guidelines from Directive 2010/63/EU of the European Parliament on the protection of animals used for scientific purposes or the NIH guideline.
Depending of experiments, 8 weeks old mice were intraperitoneally injected with PBS, the peptide of formula (I), the peptide of formula (II) and SCR. Details of peptide use, dose and mode of administration and time course are specified in the description of FIG. 11. Given the short elimination half-life of the peptide of formula (I), osmotic pumps were also used to insure a continuous delivery for 14 days. Briefly, 200 μL osmotic pump were filled with 10 mg/mL of the peptide of formula (I) in PBS and were implanted subcutaneously into the mice according to the manufacturer's instructions (Alzet®, model pump #2002), to insure the peptide of formula (I) release at an estimated rate of 0.5 μL/h, which corresponds to an estimated amount of delivery of 5 mg of the peptide of formula (I) per kilogram of body weight per day (5 mg/kg BW/day). Following treatments, mice were fasted for 2 h and were then anesthetized by intra-peritoneal injection of ketamine and xylazine hydrochloride. The common bile duct was ligated close to the duodenum and the gallbladder was punctured and cannulated with a polyethylene-10 catheter. After 30 min of stabilization, newly secreted bile was collected for 30 min. During bile collection, body temperature was stabilized using a temperature mattress. Bile flow (expressed in μL/min/100 g of body weight) was determined gravimetrically assuming a density of 1 g/mL for bile. At the end of experiment, blood was collected and mice were sacrificed by cervical dislocation.
For bile acid analysis, 1 μL of bile samples was diluted with 99 μL of milliQ water then incubated with the work reagent (6 mg NAD, 0.5 M hydrazine hydrate buffer, 0.05 M Na-pyrophosphate) for 4 min. The mix was then incubated with a start reagent (0.03 M Tris-EDTA; 0.3 U/mL 3-alpha-OH steroid dehydrogenase) and measured for 30 min, under excitation of 340/330 nm and emission of 440/420 nm. For phospholipid analysis, 1 μL of bile samples was diluted with 49 μL of milliQ water then incubated with the work reagent (100 mM MOPS, pH 8; 0.55 mM HVA; 20 mM CaCl; 11 U/mL Phospholipase-D; 1.66 U/mL Peroxidase; 0.1% Triton X-100) for 4 min. The mix was then incubated with a start reagent (1 M MOPS, pH 8, 50 U/mL Choline oxidase) and measured for 67.5 min, under excitation of 340/330 and emission of 440/40. For cholesterol analysis, 1 μL of bile samples was diluted with 29 μL of milliQ water then was incubated with the work reagent (100 mM MOPS, pH 8, 0.25 mM HVA; 0.1% Triton X-100) for 4 min. The mix was then incubated with a start reagent (0.1 M MOPS, pH 8, 0.06 U/mL cholesterol oxidase, 0.15 U/mL cholesterol esterase, 0.45 U/mL Peroxidase, 0.06 mM Taurocholate) and measured for 45 min, under excitation of 340/330 nm and emission of 440/420 nm. Secretion values of bile acids, phospholipids and cholesterol were calculated by multiplying concentration and bile flow values, and expressed as nmol/min/100 g body weight (BW).

[1] = continuous delivery (osmotic pump, sc) 14 days, 5 mg/kg BW/day

Row | Molecule | effect on HDL endocytosis (HepG2 cells) | bile flux (wild-type C57B/L6J mice; intraperitoneal bolus 25 mg/kg) | biliary secretion of bile acids (wild-type C57B/L6J mice; intraperitoneal bolus 25 mg/kg) | biliary secretion of cholesterol (wild-type C57B/L6J mice; intraperitoneal bolus 25 mg/kg) | biliary flux and biliary lipid secretion, compared with the 25 mg/kg dose (wild-type C57B/L6J mice; bolus injection 12 mg/kg) | biliary cholesterol secretion (wild-type C57B/L6J mice; [1]) | biliary flux (wild-type C57B/L6J mice; [1]) | time following injection up to which the effect on bile flux and biliary secretion is maintained (wild-type C57B/L6J mice; intraperitoneal bolus 25 mg/kg)
1 | Ac-RGAGSIREAGGAFGKREQAEEERYFRAQSRE-NH2 [peptide of formula (I), CH3CO-[SEQ ID NO: 1]-NH2] | stimulated | significant increase | significant increase | significant increase | less efficient | stimulated | stimulated | up to 4 h
2 | CCCCCCCCCCCCCCCC(=O)NCCCC[C@H](NC(=O)[C@H](CCC(=O)O)NC(=O)[C@H](CCCNC(=N)N)NC(=O)[C@H](CO)NC(=O)[C@H](CCC(N)=O)NC(=O)[C@H](C)NC(=O)[C@H](CCCNC(=N)N)NC(=O)[C@H](Cc1ccccc1)NC(=O)[C@H](Cc1ccc(O)cc1)NC(=O)[C@H](CCCNC(=N)N)NC(=O)[C@H](CCC(=O)O)NC(=O)[C@H](CCC(=O)O)NC(=O)[C@H](CCC(=O)O)NC(=O)[C@H](C)NC(=O)[C@H](CCC(N)=O)NC(=O)[C@H](CCC(=O)O)NC(=O)[C@H](CCCNC(=N)N)NC(=O)[C@H](CCCCN)NC(=O)CNC(=O)[C@H](Cc1ccccc1)NC(=O)[C@H](C)NC(=O)CNC(=O)CNC(=O)[C@H](C)NC(=O)[C@H](CCC(=O)O)NC(=O)[C@H](CCCNC(=N)N)NC(=O)[C@@H](NC(=O)[C@H](CO)NC(=O)CNC(=O)[C@H](C)NC(=O)CNC(=O)[C@H](CCCNC(=N)N)NC(C)=O)[C@@H](C)CC)C(N)=O [peptide of formula (II), CH3CO-[SEQ ID NO: 1]-K-[palmitoyl]-NH2] (Ac-RGAGSIREAGGAFGKREQAEEERYFRAQSREK(Palmitoyl)-NH2) | stimulated | stimulated | stimulated | stimulated |  |  |  | 
